Reference: patent US20160095855A1, “USE OF A POLYMORPH OF FLIBANSERIN FOR TREATING DISEASE” (Sprout Pharmaceuticals, Inc., priority 2001, published 2016)

Assays:
[1] = tested on: 5-HT2-receptor; conditions: qualitative background statement; cited from earlier work
[2] = target: T1, 5-HT1A receptor (Homo sapiens, UniProt P08908); conditions: qualitative background statement; cited from earlier work
T1 sequence (P08908 1-422): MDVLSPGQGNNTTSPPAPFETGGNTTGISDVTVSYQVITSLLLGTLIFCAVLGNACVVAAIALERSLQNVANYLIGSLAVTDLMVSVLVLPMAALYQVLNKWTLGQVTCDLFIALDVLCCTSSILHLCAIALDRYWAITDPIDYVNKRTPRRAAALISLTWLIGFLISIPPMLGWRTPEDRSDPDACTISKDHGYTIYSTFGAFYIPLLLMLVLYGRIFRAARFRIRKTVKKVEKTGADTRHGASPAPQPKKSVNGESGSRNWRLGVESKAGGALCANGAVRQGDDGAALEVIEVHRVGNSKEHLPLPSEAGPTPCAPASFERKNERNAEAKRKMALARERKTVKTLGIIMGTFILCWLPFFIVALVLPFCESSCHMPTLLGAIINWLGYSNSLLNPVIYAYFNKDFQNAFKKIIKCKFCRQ

[3] = stability under mechanical stress produced by grinding; type: physicochemical; conditions: solid state, crystalline modification of free base

SMILES | affinity for the 5-HT2-receptor [1] | affinity for the 5-HT1A receptor [2] | stability under the effects of mechanical stress produced by grinding [3]
O=c1[nH]c2ccccc2n1CCN1CCN(c2cccc(C(F)(F)F)c2)CC1 [Flibanserin, 1-[2-(4-(3-trifluoromethyl-phenyl)piperazin-1-yl)ethyl]-2,3-dihydro-1H-benzimidazol-2-one] | shows affinity | shows affinity | 
O=c1[nH]c2ccccc2n1CCN1CCN(c2cccc(C(F)(F)F)c2)CC1 [polymorph B, 1-[2-(4-(3-trifluoromethyl-phenyl)piperazin-1-yl)ethyl]-2,3-dihydro-1H-benzimidazol-2-one] |  |  | little stability
O=c1[nH]c2ccccc2n1CCN1CCN(c2cccc(C(F)(F)F)c2)CC1 [polymorph A, 1-[2-(4-(3-trifluoromethyl-phenyl)piperazin-1-yl)ethyl]-2,3-dihydro-1H-benzimidazol-2-one] |  |  | fulfill the aforementioned stability requirements
